In patent US20050208125A1, “Substantially pure solid form of the enol tautomer of 3-indolypyruvic acid for use in the treatmetn of central nervous system disturbances” (priority 2002, published 2005):
Like-named read-outs stand apart in the source and are kept apart here. Blank lines part the entries; values can stand above or below the compound they belong to.

How the values were obtained:
[1] = system: LAN5 human neuroblastoma cells; experiment: Neuronal cell sprouting (neurite length); format: cell-based; conditions: 10 μM, 7 days; for average length of the neurites: ± SD, untreated 21.8 ± 8.8
Method: LAN5 human neuroblastoma cells were seeded in 6-well plates (25.000 cells/well) in DMEM (Dulbecco's Modified Eagle's Medium) medium, additioned with 10% -fetal serum and 40 micrograms/ml gentamycin. After 24 hours, the enol tautomer of 3-indolylpyruvic acid or its derivatives, at an end concentration of 10 μM was added to the culture medium. The treatment was continued for 7 days, with medium replacement and addition of the compound under test every three days. At +7 days the cells were photopgraphed, using a Leitz Dialux 20 microscope. Then, neurite length was measured.
The results, reported in the following Table, express, in microns, the average length of the neurites for each treatment; ± is the standard deviation: […]

[2] = Incubation in rat tissue homogenates, enol form versus keto form; format: in vitro ADME
Description: (§1) The near-pure enol tautomer of 3-indolylpyruvic acid, obtained by the method described above in examples 1 and 2, was investigated on rat tissue homogenates, in order to highlight its participation in the methabolic pathways characterizing the use of tryptophan and of its derivatives in mammalian cells. […] This phenomenon, ascribed to the presence in biological fluids of a specific tautomerase already reported in literature, allows the enol form to be subjected to biochemical transformations by specific enzymes active on the indoles. In particular, when the enol form of the ketoacid is incubated in rat liver homogenates, a gradual transformation of the enol of 3-indolylpyruvic acid in tryptophan is observed: the transformation is rather linear in time, is independent from the pH—at least in the 6.5÷7.5 interval—and it leads to the conversion of over the 50% of the ketoacid in 5 hours.

rats = experiment: Pharmacological tests in rats, oral and IP; format: in vivo, rat
[3] = system: Human melanoma cells (A2058 line); experiment: Melanoma cell invasion through Matrigel; format: cell-based; conditions: mean of three experiments ± SD
Description: Matrigel is an extracellular biological matrix extracted from the Englebreth-Holm-Swarm murine sarcoma, composed of the major components of the basement membrane like laminin, entactin, collagen IV and proteoglycans. At room temperature, Matrigel forms a gel that can promote the growth of primary and continuous cell lines, and moreover can act as medium (substrate) for the adhesion, the differentiation, the migration and the invasion of tumor cell lines. Due to such features, a Matrigel test is commonly used in order to characterize the activity of substances capable of interfering with the motility of tumor cells and of inflammatory response cells. The test is conducted in wells partitioned by an 8 micron pore size membrane: Matrigel (12.4 micrograms) is uniformly spread on the membrane, whereas a chemoattractant (600 microliters), consisting of the supernatant of a murine hembryo cell line (3T3) is inserted in the bottom section of the well. The cells to be tested are seeded in the top section of the well, whereas the compounds that could interfere with their motility are placed above as well as below the membrane, so as to prevent the formation of a concentration gradient. At the end of the experiment, the cells that have crossed the membrane are counted.
Human melanoma cells (A2058 line) were cultured in MEM medium, in a 5% CO2 at 37° C. Having reached the desired growth level, the (100.000) cells were seeded in the top section of the well. The enol of 3-indolylpyruvic acid and its salts, solubilized in the cell culture medium were placed in the top and bottom section of the well.

[4] = cited from earlier work
[5] = Solubility of the enol form in solvents; format: physicochemical
[6] = Stability of the enol form in solution (UV 325 nm peak, HPLC); format: physicochemical
Description: When the enol tautomer of 3-indolylpyruvic acid is solubilized in an aqueous environment, the decline of the UV peak at 325 nm, more or less quick according to the solution temperature, the pH and the type of buffer used is immediately observed. […] In the experimental conditions used, a quicker disappearance of the 325 nm peak is observed when the enol tautomer of the ketoacid is solubilized in diluted NaOH solutions; it follows that in this solvent the keto-enol equilibrium shifts towards the keto form in a few seconds.
At longer incubation times also the gem-diole form disappears, without giving rise to the keto form.
In particular, using a phosphate solution at pH 7.4, it is observed that the enol form drops to the 44% already at +30 min, whereas the gem-diole form begins to predominate (increase) at +1 hour (44% vs 23%), yet it stabilizes at about +2 hours (49%), and then gradually declines.

[7] = Incubation in rat liver homogenates; format: in vitro ADME
Description: as §1, with “a gradual transformation of the enol of 3-indolylpyruvic acid in tryptophan is observed: the transformation” left out

[8] = Plasma levels in rats after gastric lavage; format: in vivo; conditions: rat, oral, read-out: plasma level
Method: Raising the dose to 400 mg/Kg, values of 160±13 mcg/ml for acute administration and of 189±68 mcg/ml for chronic administration were obtained.

[9] = Plasma levels in dogs after administration in food-mixed pellets; format: in vivo; conditions: dog, oral
Method: In dogs as well analogous results were obtained, as the administration (in food-mixed pellets) of 100 mg/Kg enol form of 3-indolylpyruvic acid led, at +1 hour, to plasma rates of 106±47 -mcg/ml in acute, and of 97±17 mcg/ml in chronic. 285 mg/Kg doses produced, at +1 hour,concentrations of 136±17 mcg/ml in acute, and of 120±8 mcg/ml in chronic.

superoxide anion = experiment: Neutralizing power towards oxygen free radicals; format: biochemical; conditions: contrarily to the keto tautomer form
Method: (§2) It is already known from literature that the 3-indolylpyruvic acid may function, in suitable methabolic situations, as direct precursor to the kynurenic acid, the most important endogenous inhibitor of the excitatory amino acids. […] Therefore, comparison tests were conducted between the enol form of 3-indolylpyruvic acid, obtained according to the method described above in examples 1 and 2, the keto form (obtained solubilizing a standard preparation of 3-indolylpyruvic acid obtained from commercial sources in 0.1M NaOH), and a mixture of the two forms (obtained solubilizing the above standard preparation in a pH 7.4 phosphate buffer). […] Moreover, the enol form is found to be 100 to 1000 times more powerful than the keto one, both in protecting membrane phospholipids from degradation and in blocking luminol chemiluminescence induced by a xanthin/xanthin oxidase mixture. Concerning the formation of kynurenic acid, under the same experimental conditions the enol form of 3-indolylpyruvic acid always produced from 20 to 100 times more kynurenic acid than the keto form or the mixture of the two forms. […] Concomitantly, kynurenic acid began to form, reaching a plasma peak at +90-+180 min from the enol injection, with remarkable interindividual variations.

[10] = Intravenous injection in baboons, enol and kynurenic acid plasma kinetics; format: in vivo, baboon; conditions: intravenously, 200 mg/Kg
Method: as §2

[11] = phosphate solution pH 7.4, +1 hour

SMILES: O=C(O)C(O)Cc1c[nH]c2ccccc12 (centres unmarked) [3-Indolyllactic acid]
- effect on neurite length (in words) [1]: noticeable effects on neurite length
- average length of the neurites [1]: 39.7 ± 11.8 micrometers

- transformation to tryptophan or to 3-indolyl-lactic acid ([2]; rat tissue homogenates): no significant transformations
SMILES: O=C(O)C(=O)Cc1c[nH]c2ccccc12 [keto form, reference compound]
- effects on the considered pharmacological parameters (rats; keto form solubilized in 0.1M NaOH): no apparent effects

SMILES: O=C(O)Cc1c[nH]c2ccccc12 [3-Indolylacetic acid, reference compound]
- effect on neurite length (in words) [1]: do not influence neurite length
- average length of the neurites [1]: 23.3 ± 10.5 micrometers

SMILES: O=C([O-])C(O)=Cc1c[nH]c2ccccc12.O=C([O-])C(O)=Cc1c[nH]c2ccccc12.[Mg+2] [Mg salt, magnesium salt of the enol form of 3-indolylpyruvic acid]
- Inhibition % ([3]; 65 μM): 46 ± 14%
- Inhibition % ([3]; 130 μM): 66 ± 7%
- average length of the neurites [1]: 40.1 ± 17.5 micrometers

SMILES: O=C(O)Cc1c[nH]c2ccc(O)cc12 [5-Hydroxy-Indolylacetic acid, reference compound]
- effect on neurite length (in words) [1]: do not influence neurite length
- average length of the neurites [1]: 25.7 ± 13.2 micrometers

SMILES: O=C([O-])C(O)=Cc1c[nH]c2ccccc12.[Li+] [Li salt, lithium salt of the enol tautomer of 3-indolylpyruvic acid]
- Inhibition % ([3]; 125 μM): 48 ± 7%
- Inhibition % ([3]; 250 μM): 91 ± 5%
- average length of the neurites [1]: 29.4 ± 8.5 micrometers

SMILES: O=C([O-])C(O)=Cc1c[nH]c2ccccc12.[Na+] [Na salt, sodium salt of the enol form of 3-indolylpyruvic acid]
- Inhibition % ([3]; 125 μM): 52 ± 1%
- Inhibition % ([3]; 250 μM): 78 ± 3%
- average length of the neurites [1]: 28.3 ± 16.4 micrometers

SMILES: O=C([O-])C(O)=Cc1c[nH]c2ccccc12.[K+] [K salt, potassium salt of the enol tautomer of 3-indolylpyruvic acid]
- Inhibition % ([3]; 125 μM): 51 ± 3%
- Inhibition % ([3]; 250 μM): 78 ± 3%
- average length of the neurites [1]: 44.1 ± 12.1 micrometers

SMILES: O=C([O-])C(O)=Cc1c[nH]c2ccccc12.O=C([O-])C(O)=Cc1c[nH]c2ccccc12.[Ca+2] [Ca salt, calcium salt of the enol form of 3-indolylpyruvic acid]
- Inhibition % ([3]; 70 μM): 38 ± 10%
- Inhibition % ([3]; 140 μM): 82 ± 6%
- average length of the neurites [1]: 32.7 ± 8.3 micrometers

SMILES: O=C(O)C(=O)Cc1c[nH]c2ccccc12 [3-indolylpyruvic acid]
- time in which UV spectrum of the enol tautomer converted to that of the keto tautomer ([4]; Schwarz 1961): over 2 hours
- time in which largely converted to the keto form ([4]; solution at pH 8.0, Schwarz and Bitancourt 1960): 20 min

- solubility in acetone ([5]; acetone): highly soluble
- solubility in chloroform ([5]; chloroform): wholly insoluble
- solubility in ethanol ([5]; ethanol): highly soluble
- solubility in ethyl ether ([5]; ethyl ether): slightly soluble
- solubility in methanol ([5]; methanol): highly soluble
- solubility in water ([5]; water): wholly insoluble
- time in which keto-enol equilibrium shifts towards the keto form ([6]; diluted NaOH solutions): a few seconds
- stability in methanol ([6]; methanol, several days at room temperature): extremely stable
- enol form remaining ([6]; phosphate solution pH 7.4, +30 min): 44%
- enol form remaining [6, 11]: 23%
- gem-diole form formed [6, 11]: 44%
- gem-diole form formed ([6]; phosphate solution pH 7.4, about +2 hours): ~49%
- stability in slightly alkaline buffer environments ([2]; pH 7.4, rat tissue homogenates): good stability
- transformation into 3-indolyl-lactic acid [7]: No transformation
- concentration at 1 hour ([8]; 100 mg/kg, chronic): 183 ± 78 µg/mL
- concentration at 1 h ([8]; 100 mg/kg, gastric lavage, 100 mg/Kg, acute, +1 hour): 74 ± 14 µg/mL
- concentration at 1 hour ([8]; 400 mg/kg, acute): 160 ± 13 µg/mL
- concentration at 1 hour ([8]; 400 mg/kg, chronic): 189 ± 68 µg/mL
- concentration at 1 h ([9]; 100 mg/kg, chronic, read-out: plasma rate): 97 ± 17 µg/mL
- concentration at 1 h ([9]; 100 mg/kg, food-mixed pellets, 100 mg/Kg, acute, read-out: plasma rate): 106 ± 47 µg/mL
- concentration at 1 h ([9]; 285 mg/kg, acute, read-out: plasma concentration): 136 ± 17 µg/mL
- concentration at 1 h ([9]; 285 mg/kg, chronic, read-out: plasma concentration): 120 ± 8 µg/mL
SMILES: O=C(O)/C(O)=C/c1c[nH]c2ccccc12 [3-IPA ENOL, enol tautomer of 3-indolylpyruvic acid]
- neutralizing power towards superoxide anion and hydroxyl ions (superoxide anion): strong neutralizing power
- enol plasma concentration curve [10]: remaining at clearly detectable levels for a few hours
- observed effects compared with the mixture of the two tautomers (rats; mixture in pH 7.4 phosphate buffer): clearly superior
- pharmacological properties on the cardiovasculary system (rats; orally and by IP injection): pressure reduction in hypertensive rats, but not in normotensive rats
- pharmacological properties on the central nervous system (rats; orally and by IP injection): prolongation of sleep, central analgesia, protection from NMDA-induced convulsions, reduction of toxic effects from opiates, anxiolytic and antidepressant effects, stress inhibition
- inhibition at 125 µM ([3]; Homo sapiens, 125 μM): 44 ± 5%
- inhibition at 250 µM ([3]; Homo sapiens, 250 μM): 77 ± 11%
- inhibition at 500 µM ([3]; Homo sapiens, 500 μM): 97 ± 2%
- average length of the neurites [1]: 31.9 ± 6.8 micrometers
